From patent US20100130519A1 (priority 2007, published 2010)
Like-named read-outs stand apart in the source and are kept apart here. Each block holds one compound with its values, some of them ahead of it.

Assays:
[1] = molecular target: c-Kit (stem cell factor receptor tyrosine kinase) (Homo sapiens, UniProt P10721); experiment: c-Kit inhibition; assay type: biochemical
HUVEC = HUVEC assay, endothelial cell proliferation; assay type: cell-based; conditions: Homo sapiens
Calu-6 tumour xenograft = experiment: in vivo solid tumour model of WO 00/47212, Calu-6 tumour xenograft; conditions: once-daily oral, 28 days
[2] = tested on: Calu-6 human lung tumour xenografts; experiment: Calu-6 Human Lung Cancer Xenograft Model; assay type: in vivo; conditions: athymic mice, p.o. 24 days
Protocol: Experiments were conducted in female athymic mice (Swiss nu/nu genotype, ≧6 weeks of age). Calu-6 human lung tumour xenografts were established in mice by injecting 1×10^6 cells ([…] containing 50% Matrigel®) subcutaneously in the dorsal flank. Tumour volumes were assessed using bilateral Vernier calliper measurement at least twice weekly and calculated using the formula (length×width)×√(length×width)×(π/6), where length was taken to be the longest diameter across the tumour and width the corresponding perpendicular. Mice were randomised into 4 treatment groups (10 mice/group) when the mean tumour volume reached approximately 0.2 cm^3. […] (0.5% w/v Methocel/0.1% w/v Tween 80).
Tumour growth inhibition from the start of treatment was assessed by comparison of the differences in tumour volume between control and treated groups.

Chain of c-Kit (stem cell factor receptor tyrosine kinase) (P10721 26-976): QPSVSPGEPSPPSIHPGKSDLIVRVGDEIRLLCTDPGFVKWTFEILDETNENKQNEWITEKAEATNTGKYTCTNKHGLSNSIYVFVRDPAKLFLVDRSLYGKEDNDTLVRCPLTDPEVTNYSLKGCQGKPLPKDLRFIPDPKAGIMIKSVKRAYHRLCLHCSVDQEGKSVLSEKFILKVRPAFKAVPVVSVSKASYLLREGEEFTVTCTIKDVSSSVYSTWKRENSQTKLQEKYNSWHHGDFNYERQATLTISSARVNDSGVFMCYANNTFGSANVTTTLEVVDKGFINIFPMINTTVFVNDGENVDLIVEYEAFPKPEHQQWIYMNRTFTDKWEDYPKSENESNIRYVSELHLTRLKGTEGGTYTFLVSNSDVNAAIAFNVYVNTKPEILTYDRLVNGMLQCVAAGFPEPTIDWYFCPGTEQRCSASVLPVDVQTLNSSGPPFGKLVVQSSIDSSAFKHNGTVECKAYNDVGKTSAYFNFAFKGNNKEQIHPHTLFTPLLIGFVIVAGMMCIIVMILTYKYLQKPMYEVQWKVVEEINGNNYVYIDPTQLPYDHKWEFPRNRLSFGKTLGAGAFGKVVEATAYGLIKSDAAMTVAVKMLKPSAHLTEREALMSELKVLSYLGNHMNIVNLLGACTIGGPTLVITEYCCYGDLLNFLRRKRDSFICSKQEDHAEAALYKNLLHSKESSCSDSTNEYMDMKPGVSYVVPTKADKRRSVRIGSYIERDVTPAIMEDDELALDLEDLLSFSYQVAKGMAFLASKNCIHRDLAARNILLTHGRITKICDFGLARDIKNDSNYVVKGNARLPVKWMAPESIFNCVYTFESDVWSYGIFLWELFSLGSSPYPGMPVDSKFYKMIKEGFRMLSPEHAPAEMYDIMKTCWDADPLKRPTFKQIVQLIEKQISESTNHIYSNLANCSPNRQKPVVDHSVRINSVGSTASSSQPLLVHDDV

inhibition of c-Kit [1]: inhibits
Compound: COc1cc2c(Oc3ccc4[nH]c(C)cc4c3F)ncnc2cc1OCCCN1CCCC1 [AZD2171, 4-(4-fluoro-2-methyl-1H-indol-5-yloxy)-6-methoxy-7-(3-(pyrrolidin-1-yl)propoxy)quinazoline]
IC50 (HUVEC; VEGF-stimulated, read-out: IC50, VEGF-stimulated endothelial cell proliferation): 0.4 ± 0.2 nM
IC50 (HUVEC; basal (no VEGF stimulation), read-out: IC50, basal endothelial cell proliferation): > 500 nM
inhibition of growth of Calu-6 tumour xenograft (Calu-6 tumour xenograft; 1.5 mg/kg/day, P<0.01): 49%
inhibition of growth of Calu-6 tumour xenograft (Calu-6 tumour xenograft; 3 mg/kg/day, P<0.0001): 69%
inhibition of growth of Calu-6 tumour xenograft (Calu-6 tumour xenograft; 6 mg/kg/day, P<0.0001): 91%
tumour growth inhibition ([2]; AZD2171 1.5 mg/kg once daily alone): 47%

Compound: Cn1cnc2c(F)c(Nc3ccc(Br)cc3Cl)c(C(=O)NOCCO)cc21 [AZD6244, 6-(4-Bromo-2-chloro-phenylamino)-7-fluoro-3-methyl-3H-benzoimidazole-5-carboxylic acid (2-hydroxy-ethoxy)-amide]
tumour growth inhibition ([2]; AZD6244 3 mg/kg twice daily alone): 44%
